Where “and” joins values, the source holds several entries; their conditions need not be identical. Equal entries are not always repeated.
What was measured:
[1] = Storage stability of pseudopolymorphic forms (XRPD after storage); type: physicochemical; conditions: monohydrate II as starting material; one, three and six months; container, temperature, relative humidity per example
[2] = Thermal stability of the solid (90° C., 7 days, HPLC peak areas); type: physicochemical
Protocol: 0.3 mg of the test compound, e.g. comparative example 11 were solved in 0.1 ml dimethylsulfoxide and 0.4 ml acetonitrile. Then 1.0 ml water was added. For complete dissolution the HPLC vial was shaken and sonicated. This solution was immediately analyzed by HPLC (reference at t0). 0.3 mg of the test compound was weighed into another HPLC vial. The vial was capped and stored for 7 days in a heating block at 90° C.
After this time the vial was decapped and 0.1 ml dimethylsulfoxide and 0.4 ml acetonitrile were added to the stressed compound. Then 1.0 ml water was added. For complete dissolution the HPLC vial was shaken and sonicated. The sample was analyzed by HPLC (sample after 1 week). The peak areas in percentage are used for quantification.

[3] = test system: thromboxane analog U46619 induced PAH in minipigs; assay: Haemodynamics (PAP, BP) in the anesthetized thromboxane challenged PAH minipig after inhaled (nebulized) application (C-2.1); type: in vivo, Göttingen minipig; conditions: inhaled; for BP % change vs. baseline / PAP % change vs. baseline: 100 μg/kg nominal dose, individual animals
Method in brief: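 Anesthetized, ventilated Göttingen minipigs (2-6 kg) given continuous infusion (0.3-0.75 μg/kg/min) to raise mean PAP above 25 mmHg, dosing starting after a 30 min plateau. Compound in 1% DMSO/0.2% citric acid, pH 8, nebulized via Aeroneb Pro into the inspiratory arm (~7 min; stock 300 μg/kg). PAP by Swan-Ganz catheter, BP via carotid catheter.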

[4] = test system: guinea pig trachea pre-contracted with carbachol; assay: Bronchorelaxation in vitro: carbachol pre-contracted guinea pig trachea rings, wash-out recovery factor (C-3.1)
Protocol: Male Dunkin Hartley guinea pig were euthanized using carbon dioxide. The primary bronchus was removed and placed in ice-cold Krebs-Henseleit buffer of following composition (in mmol/l): […] For recording of isometric tension, the bronchial rings were mounted between two hooks. One hook was connected to a force transducer the other was moveable and allowed a precise adjustment of resting tension at 1.5 g. During the equilibration period of 60 min the tissue was washed every 20 min with buffer. […] After 30 min, a cumulative dose response curve of the test compound was constructed. Every concentration was incubated till the response was stable. […] The relaxation was expressed as percentage tension. […] The recovery factor was calculated as a ratio of bronchodilation 1 h after compound application and bronchodilation 1 h after removal (wash out) of test compound. […] Relaxation via Cinaciguat (comparative example 1) and Riociguat (comparative example 2) reached a steady state within the 1 h incubation time. […] In contrast, relaxation induced by comparative example 11 was further progressing during the wash out period (recovery factor 1.41).

## O.O=C(O)c1ccc(CCN(CCc2ccccc2OCc2ccc(-c3ccc(C(F)(F)F)cc3)cc2Cl)[C@H]2CCCc3nc(C(=O)O)ccc32)cc1 [7d]
[1]
  Result (form after storage): monohydrate I

## O=C(O)c1ccc(CCN(CCc2ccccc2OCc2ccc(-c3nc4cc(C(F)(F)F)ccc4o3)cc2)C2CCCc3nc(C(=O)O)ccc32)cc1 (single isomer, unassigned) [comparative example 6, 5-([2-(4-carboxyphenyl)ethyl]{2-[2-({4-[5-(trifluoromethyl)-1,3-benzoxazol-2-yl]benzyl}oxy)phenyl]-ethyl}amino)-5,6,7,8-tetrahydroquinoline-2-carboxylic acid]
[2]
  thermal stability: limited thermal stability

## Ethyl 5-{[2-(2-{[3-chloro-4′-(trifluoromethyl)biphenyl-4-yl]methoxy}phenyl)ethyl]amino}-5,6,7,8-tetrahydroquinoline-2-carboxylate dihydrochloride [7a]
[1]
  Result (form after storage): monohydrate II

## O=C(O)CCCCN(CCc1ccccc1OCc1ccc(-c2nc3cc(OC(F)(F)F)ccc3o2)cc1)C1CCCc2nc(C(=O)O)ccc21 (single isomer, unassigned) [comparative example 8, 5-[(4-carboxybutyl){2-[2-({4-[5-(trifluoromethoxy)-1,3-benzoxazol-2-yl]benzyl}oxy)phenyl]ethyl}-amino]-5,6,7,8-tetrahydroquinoline-2-carboxylic acid]
[2]
  thermal stability: limited thermal stability

## Cc1ccc2oc(-c3ccc(COc4ccccc4CCN(CCCCC(=O)O)C4CCCc5nc(C(=O)O)ccc54)cc3)nc2c1 (single isomer, unassigned; (+)) [comparative example 5, (+)-5-{(4-Carboxybutyl)[2-(2-{[4-(5-methyl-1,3-benzoxazol-2-yl)benzyl]oxy}phenyl)ethyl]amino}-5,6,7,8-tetrahydroquinoline-2-carboxylic acid]
[2]
  thermal stability: limited thermal stability
[3]; time 80 min
  BP % change vs. baseline: 100.0%
  PAP % change vs. baseline: 100.0%
[3]; time 90 min
  BP % change vs. baseline: 100.0%
  PAP % change vs. baseline: 101.5% and 99.2% and 102.0%
[3]; time 100 min
  BP % change vs. baseline: 99.1% and 97.7% and 101.8%
  PAP % change vs. baseline: 98.0% and 90.0% and 93.8%
[3]; time 110 min
  BP % change vs. baseline: 99.1% and 97.7% and 100.0%
  PAP % change vs. baseline: 91.7% and 86.4% and 79.0%
[3]; time 120 min
  BP % change vs. baseline: 99.1% and 96.6% and 97.3%
  PAP % change vs. baseline: 90.0% and 86.1% and 73.7%
[3]; time 130 min
  BP % change vs. baseline: 98.1% and 97.7% and 97.3%
  PAP % change vs. baseline: 87.6% and 88.6% and 72.9%
[3]; time 140 min
  BP % change vs. baseline: 98.1% and 98.9% and 97.3%
  PAP % change vs. baseline: 87.1% and 93.0% and 73.7%
[3]; time 150 min
  BP % change vs. baseline: 95.3% and 100.0% and 97.3%
  PAP % change vs. baseline: 87.6% and 95.0% and 75.1%
[3]; time 160 min
  BP % change vs. baseline: 96.2% and 101.1% and 98.2%
  PAP % change vs. baseline: 88.7% and 96.4% and 77.8%
[3]; time 170 min
  BP % change vs. baseline: 95.3% and 101.1% and 96.4%
  PAP % change vs. baseline: 89.8% and 97.8% and 79.2%
[3]; time 180 min
  BP % change vs. baseline: 95.3% and 101.1% and 97.3%
  PAP % change vs. baseline: 90.0% and 100.6% and 81.5%
[3]; time 190 min
  BP % change vs. baseline: 94.3% and 102.3% and 96.4%
  PAP % change vs. baseline: 90.9% and 101.9% and 81.9%
[3]; time 200 min
  BP % change vs. baseline: 92.5% and 103.4% and 95.5%
  PAP % change vs. baseline: 91.4% and 102.8% and 85.2%
[3]; time 210 min
  BP % change vs. baseline: 91.5% and 102.3% and 96.4%
  PAP % change vs. baseline: 92.7% and 104.2% and 88.1%
[3]; time 220 min
  BP % change vs. baseline: 91.5% and 103.4% and 96.4%
  PAP % change vs. baseline: 94.5% and 105.8% and 91.3%
[3]; time 230 min
  BP % change vs. baseline: 91.5% and 103.4% and 94.6%
  PAP % change vs. baseline: 95.1% and 106.1% and 93.1%
[3]; time 240 min
  BP % change vs. baseline: 90.6% and 102.3% and 94.6%
  PAP % change vs. baseline: 95.5% and 105.8% and 92.9%
[3]; time 250 min
  BP % change vs. baseline: 90.6% and 102.3% and 94.6%
  PAP % change vs. baseline: 96.5% and 105.8% and 94.3%
[3]; time 260 min
  BP % change vs. baseline: 89.6% and 101.1% and 93.8%
  PAP % change vs. baseline: 98.1% and 106.4% and 95.5%
[3]; time 270 min
  BP % change vs. baseline: 90.6% and 103.4% and 93.8%
  PAP % change vs. baseline: 98.6% and 107.5% and 95.9%
[3]; time 280 min
  BP % change vs. baseline: 89.6% and 100.0% and 93.8%
  PAP % change vs. baseline: 98.6% and 106.4% and 97.2%
[3]; time 290 min
  BP % change vs. baseline: 88.7% and 102.3% and 92.9%
  PAP % change vs. baseline: 99.6% and 105.8% and 98.4%
[3]; time 300 min
  BP % change vs. baseline: 89.6% and 100.0% and 92.0%
  PAP % change vs. baseline: 100.1% and 107.0% and 98.6%
[3]; time 310 min
  BP % change vs. baseline: 89.6% and 100.0% and 91.1%
  PAP % change vs. baseline: 101.7% and 107.5% and 99.6%
[3]; time 320 min
  BP % change vs. baseline: 89.6% and 105.7% and 91.1%
  PAP % change vs. baseline: 102.8% and 109.5% and 100.1%
[3]; time 330 min
  BP % change vs. baseline: 89.6% and 98.9% and 89.3%
  PAP % change vs. baseline: 102.9% and 106.1% and 99.3%
[3]; nominal dose of 100 μg/kg
  duration of action: only a moderate duration of action
  lung selectivity: good lung selectivity

## COC(=O)N(C)c1c(N)nc(-c2nn(Cc3ccccc3F)c3ncccc23)nc1N [comparative example 2, Riociguat]
[4]; 1 μmol/l
  Relaxation (%) (timepoint at 70 min) Mean: 29.1%
  Relaxation (%) (timepoint at 130 min) Mean: 85.1%

## O=C(O)CCCCN(CCc1ccccc1OCc1ccc(-c2nc3cc(C(F)(F)F)ccc3o2)cc1)C1CCCc2nc(C(=O)O)ccc21 (single isomer, unassigned) [comparative example 7, 5-[(4-carboxybutyl)(2-[2-({4-[5-(trifluoromethyl)-1,3-benzoxazol-2-yl]benzyl}oxy)phenyl]ethyl)amino]-5,6,7,8-tetrahydroquinoline-2-carboxylic acid]
[2]
  thermal stability: limited thermal stability

## N#Cc1ccc2oc(-c3ccc(COc4ccccc4CCN(CCCCC(=O)O)C4CCCc5nc(C(=O)O)ccc54)cc3)nc2c1 (single isomer, unassigned) [comparative example 10, 5-{(4-carboxybutyl)[2-(2-{[4-(5-cyano-1,3-benzoxazol-2-yl)benzyl]oxy}phenyl)ethyl]amino}-5,6,7,8-tetrahydroquinoline-2-carboxylic acid]
[2]
  thermal stability: limited thermal stability

## O=C(O)CCCCN(CCc1ccccc1OCc1ccc(CCc2ccccc2)cc1)Cc1ccc(C(=O)O)cc1 [comparative example 1, Cinaciguat]
[4]; 1 nmol/l
  Relaxation (%) (timepoint at 70 min) Mean: 60.4%
  Relaxation (%) (timepoint at 130 min) Mean: 66.2%
